Test results published in patent publication US9084424B2, “N-benzyl heterocyclic carboxamides” (BAYER INTELLECTUAL PROPERTY GMBH, priority 2010, dated 2015).

How the values were obtained:
[1] = log P by HPLC on reversed-phase column (EEC Directive 79/831 Annex V.A8); assay type: physicochemical; conditions: 0.1% aqueous formic acid and acetonitrile, linear gradient 10% to 90% acetonitrile
Protocol: In table 1, the log P values were determined in accordance with EEC Directive 79/831 Annex V.A8 by HPLC (High Performance Liquid Chromatography) on a reversed-phase column (C 18), using the method described below: Temperature: 40° C.; Mobile phases: 0.1% aqueous formic acid and acetonitrile; linear gradient from 10% acetonitrile to 90% acetonitrile. Calibration was carried out using unbranched alkan-2-ones (comprising 3 to 16 carbon atoms) with known log P values (determination of the log P values by the retention times using linear interpolation between two successive alkanones). lambda-max-values were determined using UV-spectra from 200 nm to 400 nm and the peak values of the chromatographic signals.

[2] = system: Pyrenophora teres; test: In vivo preventive test on Pyrenophora teres (barley); conditions: preventive spray, 500 ppm of active ingredient, evaluated 7-9 days after inoculation
Protocol: In Vivo Preventive Test on Pyrenophora teres (Barley)
Solvent: 49 parts by weight of N,N-dimethylacetamid
Emulsifier: 1 part by weight of alkylaryl polyglycol ether
To produce a suitable preparation of active compound, 1 part by weight of active compound is mixed with the stated amounts of solvent and emulsifier, and the concentrate is diluted with water to the desired concentration.
To test for preventive activity, young plants are sprayed with the preparation of active compound at the stated rate of application. One day after this treatment, the plants are inoculated with an aqueous spore suspension of Pyrenophora teres. The plants remain for 48 hours in an incubation cabinet at 22° C. and a relative atmospheric humidity of 100%. Then the plants are placed in a greenhouse at a temperature of approximately 20° C. and a relative atmospheric humidity of approximately 80%.
The test is evaluated 7-9 days after the inoculation. 0% means an efficacy which corresponds to that of the untreated control while an efficacy of 100% means that no disease is observed.

[3] = HPLC, reversed-phase C 18, 40° C.
[4] = HPLC on reversed-phase column (C 18), 40° C.

Structure (SMILES) | logP [1, 3] | logP [1, 4] | Efficacy [2] [%]
Cn1nc(C(F)F)c(C(=O)NC(C#N)c2ccccc2)c1Cl (racemic) [Example 4] | 2.20 | – | –
Cn1nc(C(F)F)c(C(=O)NC(C#N)c2cc(F)ccc2F)c1Cl (racemic) [Example 7] | 2.31 | – | –
CC(NC(=O)c1c(C(F)F)nn(C)c1Cl)c1ccc(OCc2ccccc2)cc1 (racemic) [Example 159] | – | 3.58 | 95
Cn1nc(C(F)F)c(C(=O)NCc2ccccc2Cl)c1Cl [Example 21] | 2.69 | – | –
Cn1nc(C(F)F)c(C(=O)NCc2ccc(Cl)cc2Cl)c1Cl [Example 34] | 4.19 | – | –
Cn1nc(C(F)F)c(C(=O)NCc2cc(Cl)ccc2Cl)c1Cl [Example 47] | 4.39 | – | –
Cn1nc(C(F)F)c(C(=O)NC2(c3cc(Cl)ccc3Cl)CC2)c1Cl [Example 48] | 4.19 | – | –
Cn1nc(C(F)F)c(C(=O)NCc2ccccc2C2CC2)c1Cl [Example 66] | 2.98 | – | –
Cn1nc(C(F)F)c(C(=O)N(Cc2cc(Cl)ccc2C(F)(F)F)C2CSC2)c1Cl [Example 86] | 4.08 | – | –
Cn1nc(C(F)F)c(C(=O)NC2(c3cccc(C(F)(F)F)c3)CCCC2)c1Cl [Example 109] | – | 3.80 | –
Cn1nc(C(F)F)c(C(=O)NCc2ccc3c(c2)CCCC3)c1Cl [Example 111] | – | 3.44 | –
COc1ccc(CNC(=O)c2c(C(F)F)nn(C)c2Cl)cc1OC [Example 120] | – | 1.36 | –
Cn1nc(C(F)F)c(C(=O)NC2(c3ccc(C(F)(F)F)cc3)CCCC2)c1Cl [Example 122] | – | 3.87 | –
Cn1nc(C(F)F)c(C(=O)NCc2ccc(C(F)(F)F)cc2)c1Cl [Example 124] | – | 2.90 | –
Cn1nc(C(F)F)c(C(=O)NCc2ccc(Cl)cc2)c1Cl [Example 128] | – | 2.70 | –
CC(NC(=O)c1c(C(F)F)nn(C)c1F)c1ccc(C2CCCCC2)cc1 (stereo not drawn) [Example 129] | – | 4.34 | 100
CCOc1ccc(C2(NC(=O)c3c(C(F)F)nn(C)c3Cl)CCCC2)cc1 [Example 130] | – | 3.59 | –

Structure (SMILES) | logP [1, 3] | logP [1, 4] | Efficacy [2] [%]
CCOc1ccc(C2(NC(=O)c3c(C(F)F)nn(C)c3F)CCCC2)cc1 [Example 131] | – | 3.44 | 94
COc1ccc(C2(NC(=O)c3c(C(F)F)nn(C)c3Cl)CCCC2)cc1 [Example 132] | – | 3.19 | –
COc1ccc(C2(NC(=O)c3c(C(F)F)nn(C)c3F)CCCC2)cc1 [Example 133] | – | 3.06 | 95
Cn1nc(C(F)F)c(C(=O)NCc2ccccc2Oc2ccccc2)c1Cl [Example 143] | – | 3.46 | –
Cn1nc(C(F)F)c(C(=O)NCc2cccc(Oc3ccccc3)c2)c1Cl [Example 146] | – | 3.46 | –
Cn1nc(C(F)F)c(C(=O)NCc2ccc(Oc3ccccc3)cc2)c1Cl [Example 151] | – | 3.37 | –
Cn1nc(C(F)F)c(C(=O)NCc2ccc(OCc3ccccc3)cc2)c1Cl [Example 160] | – | 3.37 | –
Cn1nc(C(F)F)c(C(=O)NCc2ccccc2-c2ccccc2)c1Cl [Example 164] | – | 3.39 | –
Cn1nc(C(F)F)c(C(=O)NCc2cccc(-c3ccccc3)c2)c1Cl [Example 165] | – | 3.33 | –
Cn1nc(C(F)F)c(C(=O)NCc2ccc(-c3ccccc3)cc2)c1Cl [Example 168] | – | 3.35 | –
Cn1nc(C(F)F)c(C(=O)NC2(c3ccccn3)CCCC2)c1Cl [Example 171] | – | 1.30 | –
Cn1nc(C(F)F)c(C(=O)NC2(c3ccccn3)CCCC2)c1F [Example 172] | – | 1.13 | –
Cn1nc(C(F)F)c(C(=O)NCc2ncc(C(F)(F)F)cc2Cl)c1Cl [Example 178] | – | 3.08 | –
CC(c1ncc(Cl)cc1Cl)N(C)C(=O)c1c(C(F)F)nn(C)c1Cl (stereo not drawn) [Example 186] | – | 3.11 | –
Cn1nc(C(F)F)c(C(=O)N(Cc2ncc(C(F)(F)F)cc2Cl)C2CCCC2)c1Cl [Example 189] | – | 4.21 | –
Cn1nc(C(F)F)c(C(=O)N(Cc2ncc(C(F)(F)F)cc2Cl)C2CCCC2)c1F [Example 190] | – | 3.96 | –

Now from value to molecule, other results behind:

logP [1, 3] | logP [1, 4] | Structure (SMILES) | Efficacy [2] [%]
2.07 | – | Cn1nc(C(F)F)c(C(=O)NC(C#N)c2ccccc2)c1F (racemic) [Example 3] | –
2.01 | – | Cn1nc(C(F)F)c(C(=O)NC(C#N)c2cc(F)ccc2F)c1F (racemic) [Example 8] | –
3.02 | – | Cc1cccc(C)c1CN(C)C(=O)c1c(C(F)F)nn(C)c1Cl [Example 5] | 89
2.84 | – | Cc1cccc(C)c1CN(C)C(=O)c1c(C(F)F)nn(C)c1F [Example 6] | 78
4.19 | – | Cn1nc(C(F)F)c(C(=O)NC(C)(C)c2c(F)cccc2F)c1F [Example 9] | –
3.89 | – | Cn1nc(C(F)F)c(C(=O)NC(C)(C)c2c(F)cccc2F)c1Cl [Example 10] | –
2.68 | – | CCc1ccccc1CN(CC#N)C(=O)c1c(C(F)F)nn(C)c1F [Example 11] | –
3.39 | – | CCc1ccccc1CN(C(=O)c1c(C(F)F)nn(C)c1F)C(C)C [Example 14] | –
2.50 | – | Cn1nc(C(F)F)c(C(=O)NCc2ccccc2Cl)c1F [Example 25] | –
3.37 | – | CN(Cc1ccc(Cl)cc1Cl)C(=O)c1c(C(F)F)nn(C)c1Cl [Example 42] | –
3.19 | – | CN(Cc1ccc(Cl)cc1Cl)C(=O)c1c(C(F)F)nn(C)c1F [Example 43] | 100
3.23 | – | CN(Cc1cc(Cl)ccc1Cl)C(=O)c1c(C(F)F)nn(C)c1Cl [Example 57] | –
3.02 | – | CN(Cc1cc(Cl)ccc1Cl)C(=O)c1c(C(F)F)nn(C)c1F [Example 58] | –
3.89 | – | Cn1nc(C(F)F)c(C(=O)NCc2c(Cl)cccc2Cl)c1Cl [Example 59] | –
4.39 | – | Cn1nc(C(F)F)c(C(=O)NCc2c(Cl)cccc2Cl)c1F [Example 60] | –
3.02 | – | CN(Cc1c(Cl)cccc1Cl)C(=O)c1c(C(F)F)nn(C)c1Cl [Example 61] | 100
2.82 | – | CN(Cc1c(Cl)cccc1Cl)C(=O)c1c(C(F)F)nn(C)c1F [Example 62] | 100
3.25 | – | CC(c1c(Cl)cccc1Cl)N(C)C(=O)c1c(C(F)F)nn(C)c1Cl (stereo not drawn) [Example 63] | –
3.13 | – | CC(c1c(Cl)cccc1Cl)N(C)C(=O)c1c(C(F)F)nn(C)c1F (stereo not drawn) [Example 64] | 95
2.94 | – | CC(C)c1ccccc1CN(CC#N)C(=O)c1c(C(F)F)nn(C)c1F [Example 67] | 90

logP [1, 3] | logP [1, 4] | Structure (SMILES) | Efficacy [2] [%]
3.70 | – | CC(C)c1ccccc1CN(C(=O)c1c(C(F)F)nn(C)c1F)C(C)C [Example 69] | –
3.51 | – | CON(Cc1ccccc1C(C)C)C(=O)c1c(C(F)F)nn(C)c1Cl [Example 77] | –
3.81 | – | CC(C)c1ccc(Cl)cc1CN(CC(F)F)C(=O)c1c(C(F)F)nn(C)c1F [Example 80] | 100
3.92 | – | Cn1nc(C(F)F)c(C(=O)N(Cc2cc(Cl)ccc2C(F)(F)F)C2CSC2)c1F [Example 87] | 95
3.61 | – | CC(C)N(Cc1c(Cl)cccc1C(F)(F)F)C(=O)c1c(C(F)F)nn(C)c1F [Example 92] | 70
3.05 | – | C#CCN(Cc1c(Cl)cccc1C(F)(F)F)C(=O)c1c(C(F)F)nn(C)c1F [Example 93] | 95
3.37 | – | C=CCN(Cc1c(Cl)cccc1C(F)(F)F)C(=O)c1c(C(F)F)nn(C)c1F [Example 94] | 80
2.69 | – | Cn1nc(C(F)F)c(C(=O)NCc2c(F)cccc2C(F)(F)F)c1F [Example 95] | –
2.86 | – | Cn1nc(C(F)F)c(C(=O)NCc2c(F)cccc2C(F)(F)F)c1Cl [Example 96] | –
3.52 | – | Cn1nc(C(F)F)c(C(=O)N(CC#N)Cc2ccccc2[Si](C)(C)C)c1F [Example 97] | –
4.37 | – | CC(C)N(Cc1ccccc1[Si](C)(C)C)C(=O)c1c(C(F)F)nn(C)c1F [Example 102] | –
2.90 | – | CN(Cc1ccccc1Br)C(=O)c1c(C(F)F)nn(C)c1Cl [Example 104] | 78
– | 3.59 | Cn1nc(C(F)F)c(C(=O)NC(C)(C)c2cc(Cl)cc(Cl)c2)c1F [Example 114] | –
– | 1.79 | COc1ccc(CNC(=O)c2c(C(F)F)nn(C)c2F)cc1OC [Example 119] | –
– | 2.75 | Cn1nc(C(F)F)c(C(=O)NCc2ccc(C(F)(F)F)cc2)c1F [Example 123] | –
– | 2.08 | COc1ccc(CNC(=O)c2c(C(F)F)nn(C)c2F)cc1 [Example 134] | –
– | 3.48 | CN(Cc1ccc(Oc2ccccc2)cc1)C(=O)c1c(C(F)F)nn(C)c1Cl [Example 155] | –
– | 3.21 | Cn1nc(C(F)F)c(C(=O)NCc2ccccc2-c2ccccc2)c1F [Example 163] | –
– | 2.01 | CN(Cc1cc(Cl)ccn1)C(=O)c1c(C(F)F)nn(C)c1Cl [Example 173] | –
– | 3.85 | Cn1nc(C(F)F)c(C(=O)N(Cc2ncc(Cl)cc2Cl)C2CCCC2)c1F [Example 183] | –
